The NIST ThermoML archive (doi:10.1016/j.fluid.2016.02.009)
Numbers after ± are expanded uncertainties.

Details: Liquid, Vibrating tube method

CCOC(C)(C)C [2-ethoxy-2-methylpropane]
Details	mass density [kg/m3]
283.15 K, 100 kPa	751.23 ± 0.3
283.15 K, 5000 kPa	756.42 ± 0.33
283.15 K, 10000 kPa	761.33 ± 0.36
283.15 K, 15000 kPa	765.98 ± 0.4
283.15 K, 20000 kPa	770.36 ± 0.43
283.15 K, 25000 kPa	774.54 ± 0.46
283.15 K, 30000 kPa	778.52 ± 0.49
283.15 K, 35000 kPa	782.33 ± 0.53
283.15 K, 40000 kPa	785.98 ± 0.57
283.15 K, 45000 kPa	789.49 ± 0.6
283.15 K, 50000 kPa	792.89 ± 0.64
283.15 K, 55000 kPa	796.17 ± 0.67
283.15 K, 60000 kPa	799.33 ± 0.7
283.15 K, 65000 kPa	802.42 ± 0.73
288.15 K, 100 kPa	746.2 ± 0.3
288.15 K, 5000 kPa	751.53 ± 0.33
288.15 K, 10000 kPa	756.63 ± 0.36
288.15 K, 15000 kPa	761.42 ± 0.4
288.15 K, 20000 kPa	765.93 ± 0.43
288.15 K, 25000 kPa	770.23 ± 0.47
288.15 K, 30000 kPa	774.31 ± 0.5
288.15 K, 35000 kPa	778.21 ± 0.54
288.15 K, 40000 kPa	781.97 ± 0.57
288.15 K, 45000 kPa	785.55 ± 0.61
288.15 K, 50000 kPa	789.02 ± 0.64
288.15 K, 55000 kPa	792.37 ± 0.68
288.15 K, 60000 kPa	795.56 ± 0.71
288.15 K, 65000 kPa	798.71 ± 0.74
293.15 K, 100 kPa	741.05 ± 0.3
293.15 K, 5000 kPa	746.6 ± 0.33
293.15 K, 10000 kPa	751.89 ± 0.37
293.15 K, 15000 kPa	756.83 ± 0.4
293.15 K, 20000 kPa	761.5 ± 0.44
293.15 K, 25000 kPa	765.92 ± 0.47
293.15 K, 30000 kPa	770.13 ± 0.5
293.15 K, 35000 kPa	774.13 ± 0.54
293.15 K, 40000 kPa	777.97 ± 0.58
293.15 K, 45000 kPa	781.65 ± 0.62
293.15 K, 50000 kPa	785.19 ± 0.65
293.15 K, 55000 kPa	788.63 ± 0.69
293.15 K, 60000 kPa	791.91 ± 0.72
293.15 K, 65000 kPa	795.1 ± 0.75
298.15 K, 100 kPa	735.9 ± 0.3
298.15 K, 5000 kPa	741.67 ± 0.33
298.15 K, 10000 kPa	747.14 ± 0.37
298.15 K, 15000 kPa	752.27 ± 0.4
298.15 K, 20000 kPa	757.08 ± 0.44
298.15 K, 25000 kPa	761.61 ± 0.47
298.15 K, 30000 kPa	765.96 ± 0.51
298.15 K, 35000 kPa	770.04 ± 0.55
298.15 K, 40000 kPa	773.96 ± 0.59
298.15 K, 45000 kPa	777.75 ± 0.62
298.15 K, 50000 kPa	781.37 ± 0.66
298.15 K, 55000 kPa	784.85 ± 0.69
298.15 K, 60000 kPa	788.21 ± 0.73
298.15 K, 65000 kPa	791.48 ± 0.76
303.15 K, 100 kPa	730.67 ± 0.3
303.15 K, 5000 kPa	736.68 ± 0.33
303.15 K, 10000 kPa	742.38 ± 0.37
303.15 K, 15000 kPa	747.69 ± 0.41
303.15 K, 20000 kPa	752.63 ± 0.44
303.15 K, 25000 kPa	757.33 ± 0.48
303.15 K, 30000 kPa	761.74 ± 0.52
303.15 K, 35000 kPa	765.95 ± 0.56
303.15 K, 40000 kPa	769.98 ± 0.59
303.15 K, 45000 kPa	773.86 ± 0.63
303.15 K, 50000 kPa	777.57 ± 0.67
303.15 K, 55000 kPa	781.12 ± 0.7
303.15 K, 60000 kPa	784.56 ± 0.74
303.15 K, 65000 kPa	787.89 ± 0.77
308.15 K, 100 kPa	725.44 ± 0.3
308.15 K, 5000 kPa	731.69 ± 0.33
308.15 K, 10000 kPa	737.6 ± 0.37
308.15 K, 15000 kPa	743.07 ± 0.41
308.15 K, 20000 kPa	748.18 ± 0.44
308.15 K, 25000 kPa	753.01 ± 0.48
308.15 K, 30000 kPa	757.57 ± 0.52
308.15 K, 35000 kPa	761.9 ± 0.56
308.15 K, 40000 kPa	766.03 ± 0.6
308.15 K, 45000 kPa	769.97 ± 0.64
308.15 K, 50000 kPa	773.76 ± 0.68
308.15 K, 55000 kPa	777.4 ± 0.71
308.15 K, 60000 kPa	780.9 ± 0.75
308.15 K, 65000 kPa	784.29 ± 0.78
313.15 K, 100 kPa	720.14 ± 0.3
313.15 K, 5000 kPa	726.68 ± 0.34
313.15 K, 10000 kPa	732.78 ± 0.37
313.15 K, 15000 kPa	738.45 ± 0.41
313.15 K, 20000 kPa	743.71 ± 0.45
313.15 K, 25000 kPa	748.69 ± 0.48
313.15 K, 30000 kPa	753.36 ± 0.53
313.15 K, 35000 kPa	757.81 ± 0.57
313.15 K, 40000 kPa	762.03 ± 0.61
313.15 K, 45000 kPa	766.08 ± 0.65
313.15 K, 50000 kPa	769.94 ± 0.68
313.15 K, 55000 kPa	773.66 ± 0.72
313.15 K, 60000 kPa	777.23 ± 0.75
313.15 K, 65000 kPa	780.69 ± 0.79
318.15 K, 100 kPa	714.82 ± 0.3
318.15 K, 5000 kPa	721.59 ± 0.34
318.15 K, 10000 kPa	727.94 ± 0.37
318.15 K, 15000 kPa	733.82 ± 0.41
318.15 K, 20000 kPa	739.27 ± 0.45
318.15 K, 25000 kPa	744.39 ± 0.49
318.15 K, 30000 kPa	749.2 ± 0.53
318.15 K, 35000 kPa	753.76 ± 0.57
318.15 K, 40000 kPa	758.08 ± 0.61
318.15 K, 45000 kPa	762.23 ± 0.65
318.15 K, 50000 kPa	766.19 ± 0.69
318.15 K, 55000 kPa	769.98 ± 0.73
318.15 K, 60000 kPa	773.61 ± 0.76
318.15 K, 65000 kPa	777.13 ± 0.8
323.15 K, 100 kPa	709.43 ± 0.3
323.15 K, 5000 kPa	716.51 ± 0.34
323.15 K, 10000 kPa	723.13 ± 0.38
323.15 K, 15000 kPa	729.2 ± 0.42
323.15 K, 20000 kPa	734.81 ± 0.45
323.15 K, 25000 kPa	740.06 ± 0.49
323.15 K, 30000 kPa	745.02 ± 0.54
323.15 K, 35000 kPa	749.69 ± 0.58
323.15 K, 40000 kPa	754.13 ± 0.62
323.15 K, 45000 kPa	758.36 ± 0.66
323.15 K, 50000 kPa	762.39 ± 0.7
323.15 K, 55000 kPa	766.26 ± 0.74
323.15 K, 60000 kPa	770 ± 0.77
323.15 K, 65000 kPa	773.58 ± 0.81
328.15 K, 100 kPa	703.95 ± 0.3
328.15 K, 5000 kPa	711.38 ± 0.34
328.15 K, 10000 kPa	718.21 ± 0.38
328.15 K, 15000 kPa	724.52 ± 0.42
328.15 K, 20000 kPa	730.3 ± 0.46
328.15 K, 25000 kPa	735.75 ± 0.5
328.15 K, 30000 kPa	740.83 ± 0.54
328.15 K, 35000 kPa	745.64 ± 0.58
328.15 K, 40000 kPa	750.18 ± 0.63
328.15 K, 45000 kPa	754.48 ± 0.67
328.15 K, 50000 kPa	758.63 ± 0.71
328.15 K, 55000 kPa	762.55 ± 0.74
328.15 K, 60000 kPa	766.37 ± 0.78
328.15 K, 65000 kPa	770.52 ± 0.82
333.15 K, 100 kPa	698.45 ± 0.3
333.15 K, 5000 kPa	706.19 ± 0.34
333.15 K, 10000 kPa	713.35 ± 0.38
333.15 K, 15000 kPa	719.84 ± 0.42
333.15 K, 20000 kPa	725.83 ± 0.46
333.15 K, 25000 kPa	731.42 ± 0.5
333.15 K, 30000 kPa	736.64 ± 0.55
333.15 K, 35000 kPa	741.54 ± 0.59
333.15 K, 40000 kPa	746.21 ± 0.63
333.15 K, 45000 kPa	750.65 ± 0.67
333.15 K, 50000 kPa	754.86 ± 0.71
333.15 K, 55000 kPa	758.88 ± 0.75
333.15 K, 60000 kPa	762.77 ± 0.79
333.15 K, 65000 kPa	766.51 ± 0.83
